{"source": "patent US20160038526A1", "about": "“TREATMENT OF PROSTATE CANCER” (THOMAS JEFFERSON UNIVERSITY, priority 2012, published 2016)", "type_in_all_cases": "cell-based", "key": {"Stat5a [1]": {"molecular_target": "T1, Stat5a (Homo sapiens, UniProt P42229)", "T1 sequence (P42229 1-794)": "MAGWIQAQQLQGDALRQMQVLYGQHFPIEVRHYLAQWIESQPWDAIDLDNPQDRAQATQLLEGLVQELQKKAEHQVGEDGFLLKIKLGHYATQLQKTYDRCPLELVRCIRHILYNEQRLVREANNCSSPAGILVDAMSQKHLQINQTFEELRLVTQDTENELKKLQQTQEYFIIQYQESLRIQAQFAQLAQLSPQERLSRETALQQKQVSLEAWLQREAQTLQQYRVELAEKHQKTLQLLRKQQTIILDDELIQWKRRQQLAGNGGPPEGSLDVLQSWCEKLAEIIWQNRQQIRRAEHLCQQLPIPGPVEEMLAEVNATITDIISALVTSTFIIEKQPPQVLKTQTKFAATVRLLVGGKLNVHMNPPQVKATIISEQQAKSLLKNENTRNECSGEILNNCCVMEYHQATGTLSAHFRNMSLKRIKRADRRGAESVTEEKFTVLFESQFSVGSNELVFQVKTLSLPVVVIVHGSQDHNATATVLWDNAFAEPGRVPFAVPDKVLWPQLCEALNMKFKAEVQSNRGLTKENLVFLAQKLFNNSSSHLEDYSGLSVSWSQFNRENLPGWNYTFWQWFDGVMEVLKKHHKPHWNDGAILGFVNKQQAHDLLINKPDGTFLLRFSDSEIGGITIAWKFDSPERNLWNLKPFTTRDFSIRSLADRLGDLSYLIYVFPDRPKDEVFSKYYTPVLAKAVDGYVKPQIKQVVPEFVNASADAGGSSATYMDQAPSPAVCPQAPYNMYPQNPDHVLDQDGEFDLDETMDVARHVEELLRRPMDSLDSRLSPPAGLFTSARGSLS", "assay": "Stat5a transcriptional activity, β-casein promoter luciferase reporter gene assay in PC-3 cells", "parameters": "expressed in transfected cells; host or cells: PC-3 (human prostate cancer cell line)", "conditions": "1 hour pretreatment, 10 nM hPrl for 16 hours", "protocol": "Cells of the human prostate cell line PC-3 were plated into 96-well plate at the density of 2×10^5 per well. After 24 hours of plating, cells were transiently co-transfected using FuGENE6 (Roche) with 0.25 μg of each of pStat5a or pStat5b, pPrlR (prolactin receptor) plasmids, 0.5 μg of pBeta-casein-luc and 0.025 μg of pRL-TK (Renilla luciferase) plasmids as an internal control. After another 24 hours of transfection, the cells were starved in serum-free medium for 8 hours, pretreated with N^6-benzyladenosine-5′-monophosphate (“N6BAP”), or one of five control compounds (designated “C3” through “C7”) of similar molecular weight but unrelated chemical structure to N6BAP), for 1 hour, and then stimulated with 10 nM human prolactin (hPrl) in the serum-free medium for additional 16 hours. The lysates were assayed for firefly and Renilla luciferase activities using the Dual-Luciferase reporter assay system (Promega). Three independent experiments were carried out in triplicate. The firefly luciferase activity was normalized to the Renilla luciferase activity of the same sample, and the mean was calculated from the parallels. From the mean values of each independent run, the overall mean and its standard deviation (S.D.) were calculated."}, "[2]": {"test_system": "human clinical prostate cancer explants", "assay": "Clinical prostate cancers ex vivo in explant organ cultures: viability of epithelium", "conditions": "eight patients, 7 days, N6BAP 5, 10, 25, 50 and 100 μM", "from_the_text": "For organ cultures, prostate cancer specimens were obtained during surgery from eight patients with localized or locally advanced prostate cancer undergoing radical prostatectomy and bilateral iliac lymphadenectomy. The specimens are identified in Table 1.\nThe specimens comprised de-identified excess tissue obtained after the completion of pathology diagnosis. A zero-sample prior to organ culture was formalin-fixed for each individual prostate cancer for the analysis of the nuclear Stat5a/b status. The prostate organ cultures were performed as described earlier (Ahonen et al., Endocrinology (2002), 143:228-238). Briefly, prostate cancer tissue was cut into approximately 1 mm^3 pieces in a plain culture medium and transferred onto lens papers lying on stainless steel grids in petri dishes. […] Tissue explants were cultured in a medium containing the N6BAP or control compound C5 at indicated concentrations (C5: […]; N6BAP: 5, 10, 25, 50 and 100 μM) 7 days, after which the explants were fixed in formalin and analyzed for Stat5a/b activation and viability of prostate cancer epithelial compartment. Viability of the epithelial cells in the prostate cancer explants at the end of the cultures were scored by counting the viable epithelial cells per explant."}, "Stat3": {"molecular_target": "Stat3 (Homo sapiens, UniProt P40763)", "sequence (P40763 whole entry, species assumed)": "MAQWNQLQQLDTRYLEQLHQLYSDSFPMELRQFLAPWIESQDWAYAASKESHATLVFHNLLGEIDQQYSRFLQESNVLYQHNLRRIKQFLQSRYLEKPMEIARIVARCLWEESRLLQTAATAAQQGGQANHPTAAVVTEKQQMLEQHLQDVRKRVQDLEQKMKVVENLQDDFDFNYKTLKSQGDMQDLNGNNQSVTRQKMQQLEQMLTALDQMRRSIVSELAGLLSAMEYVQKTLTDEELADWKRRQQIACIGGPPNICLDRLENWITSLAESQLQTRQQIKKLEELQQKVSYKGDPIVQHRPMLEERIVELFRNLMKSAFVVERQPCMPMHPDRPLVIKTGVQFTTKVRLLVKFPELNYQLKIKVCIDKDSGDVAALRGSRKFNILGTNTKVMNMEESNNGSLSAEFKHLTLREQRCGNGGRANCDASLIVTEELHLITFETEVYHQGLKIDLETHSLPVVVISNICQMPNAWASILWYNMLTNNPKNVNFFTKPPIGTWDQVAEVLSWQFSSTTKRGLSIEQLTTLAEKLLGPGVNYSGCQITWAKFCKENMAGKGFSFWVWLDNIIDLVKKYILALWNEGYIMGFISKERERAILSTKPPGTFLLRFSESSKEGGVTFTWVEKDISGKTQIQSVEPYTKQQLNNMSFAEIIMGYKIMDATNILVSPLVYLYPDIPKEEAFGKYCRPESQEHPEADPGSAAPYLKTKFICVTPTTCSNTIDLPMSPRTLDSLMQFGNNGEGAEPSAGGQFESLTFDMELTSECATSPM", "assay": "IL-6-induced Stat3 transcriptional activity, luciferase reporter in LNCaP cells", "conditions": "6.0 μM for 2 h, 50 ng/ml IL-6 for 16 h", "protocol": "LNCaP prostate cancer cells were transiently co-transfected with pStat3, pIL-6-receptor (pIL-6R), pStat3-Luc and pRL-TK (Renilla luciferase). The cells were serum-starved for 20 h, pre-treated with N6BAP or the control compound C5 (Ctrl) at 6.0 μM for 2 h followed by stimulation with 50 ng/ml of IL-6 for 16 h. The relative luciferase activities were determined. S.E. values are indicated by bars."}, "Stat5a [3]": {"molecular_target": "T1, Stat5a", "assay": "Stat5a translocation to the nucleus in PC3 cells (immunofluorescence)", "parameters": "expressed in transfected cells; host or cells: PC-3 (human prostate cancer cell line)", "conditions": "2 hours pretreatment, 10 nmol/L Prl 30 minutes", "protocol": "PC3 cells were infected with Ade-Stat5a and Ade-PrlR at MOI 5 for each adenovirus. Cells were pretreated with N6BAP or vehicle (DMSO) for 2 hours and then stimulated with 10 nmol/L Prl for 30 minutes. Cells were fixed with 100% methanol for 15 min and subsequently permeabilized with 0.1% Triton X-100 in PBS (pH 7.4). After blocking with 2% bovine serum albumin in PBS, cells were incubated with an antibody specific for Stat5a or Stat5b at 4° C. for 2 hours. Cells were then washed with PBS and incubated with FITC-conjugated secondary antibody (Jackson ImmunoResearch) at room temperature for 1 hour. The images were taken by using an inverted fluorescence microscopy (Carl Zeiss). […] It should be noted the drug effect in this study was not due to cell apoptosis induction, as the treatment time was only 2 hours. Treatment of at least 48 hours is required for the compound to induce prostate cancer cell apoptosis."}}, "note": "“Also recorded” adds a separate entry of the source."}
{"smiles": "O=P(O)(O)OC[C@H]1O[C@@H](n2cnc3c(NCc4ccccc4)ncnc32)[C@H](O)[C@@H]1O", "note": "[N6BAP, N^6-benzyladenosine-5′-monophosphate]", "values": [{"measurement": "transcriptional activity of Stat5a on the β-casein gene promoter", "setting": "Stat5a [1]", "result": "inhibited Stat5a and Stat5b transcriptional activity in a concentration-dependent manner; also recorded: effectively blocks the transcriptional activity"}, {"measurement": "viability of prostate cancer epithelium in explant organ cultures", "setting": "[2]", "result": "induced extensive death of prostate cancer epithelium"}, {"measurement": "transcriptional activity of Stat3", "setting": "Stat3", "result": "does not inhibit the transcriptional activity of Stat3"}, {"measurement": "translocation of Stat5a to the nucleus", "setting": "Stat5a [3]", "result": "blocks translocation of Stat5a to the nucleus"}]}
